Measured values: PMC10840383, “Clinical features, functional consequences, and rescue pharmacology of missense GRID1 and GRID2 human variants” (Human Molecular Genetics, 2023)

Molecular target: T1, GluD1-N651S (Homo sapiens, UniProt Q9ULK0, N651S)
T1 construct: expressed in transfected cells; host or cells: Xenopus laevis oocytes injected with cRNA
T1 sequence (Q9ULK0 21-1009 N651S): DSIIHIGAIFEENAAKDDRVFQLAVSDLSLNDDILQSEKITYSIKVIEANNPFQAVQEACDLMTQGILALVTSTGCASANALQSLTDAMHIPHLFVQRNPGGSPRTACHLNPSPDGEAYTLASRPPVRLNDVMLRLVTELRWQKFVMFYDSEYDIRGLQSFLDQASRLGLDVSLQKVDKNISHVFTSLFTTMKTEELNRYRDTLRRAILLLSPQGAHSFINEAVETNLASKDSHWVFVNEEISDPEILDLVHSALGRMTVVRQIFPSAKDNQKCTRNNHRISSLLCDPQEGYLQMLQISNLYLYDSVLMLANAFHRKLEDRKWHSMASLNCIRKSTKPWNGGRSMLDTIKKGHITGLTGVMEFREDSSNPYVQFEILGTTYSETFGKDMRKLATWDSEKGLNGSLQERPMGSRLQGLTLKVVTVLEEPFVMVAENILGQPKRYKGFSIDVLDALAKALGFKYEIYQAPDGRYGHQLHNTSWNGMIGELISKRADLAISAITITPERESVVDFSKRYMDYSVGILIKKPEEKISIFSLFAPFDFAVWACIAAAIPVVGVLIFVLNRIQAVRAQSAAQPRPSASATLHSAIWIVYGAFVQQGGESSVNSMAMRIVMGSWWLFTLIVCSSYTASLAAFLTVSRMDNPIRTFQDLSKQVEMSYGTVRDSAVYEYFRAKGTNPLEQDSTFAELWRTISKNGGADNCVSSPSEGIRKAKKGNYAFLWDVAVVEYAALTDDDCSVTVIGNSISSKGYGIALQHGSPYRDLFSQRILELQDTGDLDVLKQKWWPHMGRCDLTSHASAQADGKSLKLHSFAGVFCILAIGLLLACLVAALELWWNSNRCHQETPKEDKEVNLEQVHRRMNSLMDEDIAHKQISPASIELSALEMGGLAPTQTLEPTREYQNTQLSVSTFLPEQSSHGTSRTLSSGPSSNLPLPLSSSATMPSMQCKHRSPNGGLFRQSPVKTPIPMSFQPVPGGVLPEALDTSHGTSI
Assay: TEVC of constitutive current, Xenopus oocytes expressing GluD1-N651S
Format: cell-based
Conditions: positive = increase, negative = decrease of activity

D-Serine effect (Baseline −10 mM D-Serine) (10 mM D-serine)	SMILES	Pentamidine effect (Baseline −100 μM Pentamidine) (100 μM pentamidine)
7.6 ± 1.6 (10) nA	N[C@H](CO)C(=O)O [D-serine]	–
–	N=C(N)c1ccc(OCCCCCOc2ccc(C(=N)N)cc2)cc1 [Pentamidine, pentamidine]	38 ± 8.3 (10) nA
